Assay results taken from ChEMBL document CHEMBL1201862, “PubChem BioAssay data set” (2004).
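96-well plates; 48 h exposure; 5 concentrations. Endpoints by linear interpolation between flanking doses. Not reached: highest tested concentration assigned. GI50: concentration for 50% inhibition of growth.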 The source made the active and inactive calls. Cut-off read from the data, not from the text of the source: active = GI50 up to about 1.1 µM and inactive = higher.

Assays:
Experiment in all cases: growth of human tumour cells (NCI), 48 h
MOLT-4 = tested on: MOLT-4
NCI-H460 = tested on: NCI-H460
SF-268 = tested on: SF-268
K562 = tested on: K562
SNB-75 = tested on: SNB-75
SF-539 = tested on: SF-539
KM12 = tested on: KM12
TK-10 = tested on: TK-10
OVCAR-5 = tested on: OVCAR-5
SK-MEL-5 = tested on: SK-MEL-5
OVCAR-4 = tested on: OVCAR-4
MDA-N = tested on: MDA-N
HOP-62 = tested on: HOP-62
MCF7 = tested on: MCF7
RPMI-8226 = tested on: RPMI-8226
Hs-578T = tested on: Hs-578T
IGROV-1 = tested on: IGROV-1
A549 = tested on: A549
ACHN = tested on: ACHN
HOP-92 = tested on: HOP-92

Measured: GI50

COC(=O)Nc1nc2cc(C(=O)c3ccc[nH]3)ccc2[nH]1
inactive: SF-268 2.04 µM | SF-539 2.4 µM | TK-10 1.67 µM | OVCAR-5 > 100 µM | OVCAR-4 > 100 µM | HOP-62 1.44 µM | Hs-578T 1.54 µM | IGROV-1 1.7 µM
active: MOLT-4 0.575 µM | NCI-H460 0.596 µM | K562 0.387 µM | SNB-75 0.235 µM | KM12 0.49 µM | SK-MEL-5 0.282 µM | MDA-N 0.134 µM | MCF7 0.341 µM | RPMI-8226 0.49 µM

Cc1nc2c(cc1C(=O)N/N=C/c1ccc([N+](=O)[O-])cc1)c(=O)n(C)c(=O)n2C
inactive: MOLT-4 > 100 µM | NCI-H460 > 100 µM | SF-268 25.4 µM | K562 > 100 µM | A549 > 100 µM | SNB-75 > 100 µM | KM12 > 100 µM | TK-10 54.3 µM | OVCAR-5 > 100 µM | SK-MEL-5 > 100 µM | OVCAR-4 > 100 µM | MDA-N > 100 µM | HOP-62 16.5 µM | MCF7 > 100 µM | RPMI-8226 96.6 µM | Hs-578T 31.1 µM | IGROV-1 42.4 µM | ACHN > 100 µM

COc1ccc(-c2cc(-c3cc(C)cc(Br)c3O)no2)cc1
inactive: MOLT-4 13.5 µM | NCI-H460 5.58 µM | SF-268 4.17 µM | K562 14.1 µM | A549 13.3 µM | SNB-75 2.86 µM | SF-539 5.74 µM | KM12 22.2 µM | TK-10 19.8 µM | OVCAR-5 30.4 µM | SK-MEL-5 7 µM | OVCAR-4 3.37 µM | MDA-N 23.6 µM | HOP-62 8.67 µM | MCF7 15.7 µM | RPMI-8226 11.2 µM | Hs-578T 4.86 µM | IGROV-1 10.8 µM | ACHN 8.36 µM

CSc1cc(Cl)c(C)cc1S(=O)(=O)NC(=O)NNc1ccc(C)cc1
inactive: MOLT-4 43 µM | NCI-H460 > 100 µM | SF-268 > 100 µM | K562 > 100 µM | A549 > 100 µM | SNB-75 8.26 µM | SF-539 > 100 µM | KM12 78.3 µM | OVCAR-5 > 100 µM | SK-MEL-5 > 100 µM | OVCAR-4 > 100 µM | MDA-N > 100 µM | HOP-62 > 100 µM | MCF7 > 100 µM | Hs-578T > 100 µM | IGROV-1 > 100 µM | ACHN 30.7 µM

CN1CN(c2ccccc2)C2(CCN(Cc3csc4ccccc34)CC2)C1=O
inactive: MOLT-4 4.32 µM | SF-268 22.3 µM | K562 5.45 µM | A549 18.6 µM | SNB-75 23.7 µM | SF-539 15.1 µM | KM12 11.5 µM | TK-10 12.9 µM | OVCAR-5 1.63 µM | SK-MEL-5 7.78 µM | MDA-N 15.2 µM | HOP-62 19.6 µM | MCF7 11.6 µM | RPMI-8226 2.16 µM | IGROV-1 10.8 µM | ACHN 17.6 µM

CCOP(=O)(Cc1nc(C#N)c(N)o1)OCC
inactive: MOLT-4 > 100 µM | NCI-H460 > 100 µM | SF-268 > 100 µM | K562 > 100 µM | KM12 > 100 µM | TK-10 > 100 µM | OVCAR-5 > 100 µM | SK-MEL-5 > 100 µM | OVCAR-4 > 100 µM | MDA-N > 100 µM | HOP-62 > 100 µM | MCF7 > 100 µM | RPMI-8226 > 100 µM | Hs-578T > 100 µM | IGROV-1 > 100 µM | HOP-92 > 100 µM | ACHN > 100 µM

COC(=O)/C=C/c1ccc2nncnc2c1.COC(=O)/C=C\c1ccc2nncnc2c1
inactive: MOLT-4 55.6 µM | NCI-H460 10 µM | SF-268 75.7 µM | K562 43 µM | A549 21.2 µM | SNB-75 18.7 µM | SF-539 31.9 µM | KM12 31.6 µM | TK-10 > 100 µM | OVCAR-5 > 100 µM | SK-MEL-5 8.17 µM | OVCAR-4 > 100 µM | MDA-N 20.9 µM | HOP-62 70.5 µM | MCF7 42.5 µM | RPMI-8226 > 100 µM | Hs-578T 9.14 µM | IGROV-1 85.5 µM | ACHN > 100 µM

COc1ccc(Cc2ccccc2C(=O)O)c2ccccc12
inactive: NCI-H460 18.8 µM | SF-268 22.8 µM | K562 37 µM | A549 33 µM | SNB-75 34.4 µM | KM12 18.7 µM | TK-10 24 µM | OVCAR-5 24.3 µM | SK-MEL-5 17.3 µM | OVCAR-4 36.6 µM | MDA-N 27.6 µM | HOP-62 36.6 µM | MCF7 38.1 µM | RPMI-8226 29.4 µM | Hs-578T 12.1 µM | IGROV-1 30.6 µM | HOP-92 18.8 µM | ACHN 31.2 µM

CC(=O)O[C@H]1C[C@H]2[C@@H]([C@H](OC(C)=O)C[C@@H]3CC4(CC[C@@]32C)OOC2(CCCCC2)OO4)[C@@H]2CC[C@H]([C@H](C)CCC(N)=O)[C@@]12C
inactive: NCI-H460 1.93 µM | SF-268 1.66 µM | K562 2.05 µM | A549 1.19 µM | SNB-75 2.28 µM | SF-539 3.13 µM | KM12 1.71 µM | TK-10 2.6 µM | OVCAR-5 2.34 µM | SK-MEL-5 2.15 µM | OVCAR-4 1.78 µM | MDA-N 1.95 µM | MCF7 2.61 µM | Hs-578T 5.47 µM | ACHN 1.63 µM
active: MOLT-4 0.881 µM | HOP-62 0.817 µM | RPMI-8226 0.726 µM | IGROV-1 0.134 µM

CC(=O)OC1CCN(C(=O)c2ccccc2)CC1CC1(c2cc3ccccc3[nH]2)OCCO1 (stereo unspecified)
inactive: MOLT-4 32.2 µM | K562 30.1 µM | A549 50.1 µM | SNB-75 49.4 µM | KM12 67.5 µM | TK-10 53.2 µM | OVCAR-5 > 100 µM | SK-MEL-5 44 µM | OVCAR-4 77.3 µM | MDA-N 39.2 µM | HOP-62 > 100 µM | MCF7 > 100 µM | RPMI-8226 22.3 µM | IGROV-1 61.2 µM | HOP-92 48.9 µM | ACHN > 100 µM

CCN1CCN(c2nc3ccc([N+](=O)[O-])cc3nc2C(=O)c2ccccc2)CC1
inactive: MOLT-4 3.23 µM | NCI-H460 21.8 µM | SF-268 19.1 µM | K562 6.31 µM | A549 17.6 µM | SF-539 16.1 µM | KM12 16.8 µM | TK-10 19.9 µM | OVCAR-5 20.1 µM | MDA-N 18.7 µM | HOP-62 20.1 µM | MCF7 18.3 µM | RPMI-8226 12.8 µM | IGROV-1 5.78 µM | HOP-92 17.8 µM | ACHN 15.8 µM

CC(=O)O[C@H]1CC[C@H]2[C@@H]3CCC4=CC(=O)C=C[C@]4(O)[C@H]3CC[C@]12C
inactive: MOLT-4 8 µM | NCI-H460 32.2 µM | K562 7.66 µM | A549 > 42 µM | SNB-75 14.7 µM | SF-539 31.3 µM | KM12 14.9 µM | TK-10 > 100 µM | OVCAR-5 > 100 µM | SK-MEL-5 4.6 µM | OVCAR-4 > 48.9 µM | MDA-N 29.9 µM | HOP-62 > 100 µM | MCF7 26.7 µM | RPMI-8226 3.47 µM | IGROV-1 55.1 µM | HOP-92 23.9 µM | ACHN > 84.5 µM

COc1ccc(-n2sc3ncc(C)cc3c2=O)cc1
inactive: MOLT-4 29.3 µM | NCI-H460 86.3 µM | SF-268 20.9 µM | K562 39 µM | A549 20.7 µM | KM12 16.1 µM | TK-10 19.1 µM | OVCAR-5 20.1 µM | SK-MEL-5 13.2 µM | OVCAR-4 33.4 µM | MDA-N 16.5 µM | HOP-62 18.2 µM | MCF7 23.7 µM | RPMI-8226 26.2 µM | Hs-578T 30.6 µM | IGROV-1 31.9 µM | HOP-92 19.9 µM | ACHN 18.3 µM

Cc1cc(=O)oc2cc(OCC(O)COC(C)C)ccc12 (stereo unspecified)
inactive: MOLT-4 > 100 µM | NCI-H460 > 100 µM | SF-268 > 100 µM | K562 > 100 µM | A549 > 100 µM | SNB-75 > 100 µM | KM12 > 100 µM | TK-10 > 100 µM | OVCAR-5 > 100 µM | SK-MEL-5 > 100 µM | OVCAR-4 59.2 µM | MDA-N 91.4 µM | HOP-62 > 100 µM | MCF7 > 100 µM | RPMI-8226 > 100 µM | Hs-578T 97.1 µM | IGROV-1 > 100 µM | HOP-92 80.9 µM | ACHN > 100 µM

Cc1ccc2c(O)cc(-c3cccc(Cl)c3)nc2n1
inactive: TK-10 > 59.8 µM | OVCAR-4 > 62.1 µM | HOP-92 1.25 µM
active: MOLT-4 < 0.0229 µM | NCI-H460 < 0.0204 µM | SF-268 0.59 µM | K562 < 0.0169 µM | A549 0.0325 µM | SF-539 < 0.01 µM | KM12 < 0.0196 µM | SK-MEL-5 < 0.0177 µM | MDA-N 1 µM | HOP-62 0.0305 µM | MCF7 < 0.0217 µM | RPMI-8226 < 0.0212 µM | Hs-578T 0.028 µM | IGROV-1 0.0155 µM | ACHN 0.313 µM

CC(=O)c1cccc(Nc2nc3ccccc3c3[nH]c4ccccc4c23)c1
active: MCF7 0.403 µM
inactive: NCI-H460 1.7 µM | SF-268 3.67 µM | K562 4.69 µM | A549 2.78 µM | SF-539 4 µM | KM12 4.66 µM | TK-10 7.55 µM | OVCAR-5 6.52 µM | MDA-N 4.73 µM | HOP-62 7.31 µM | RPMI-8226 3.03 µM | Hs-578T 10.9 µM | IGROV-1 2.88 µM | HOP-92 2.87 µM | ACHN 3.63 µM
